From patent US8404708B2, “Dual NK1/NK3 receptor antagonists” (Hoffmann-La Roche Inc., priority 2004, dated 2013)

How the values were obtained:
[1] = molecular target: T1, Recombinant human NK3 (hNK3) receptor (Homo sapiens, UniProt P29371); test: NK3 receptor binding, [3H]SR142801 displacement, membrane preparations; conditions: second value of the cell NK1/NK3; read-out: pKi NK3 (converted)
T1 construct: expressed in transfected cells
T1 sequence (P29371 1-465): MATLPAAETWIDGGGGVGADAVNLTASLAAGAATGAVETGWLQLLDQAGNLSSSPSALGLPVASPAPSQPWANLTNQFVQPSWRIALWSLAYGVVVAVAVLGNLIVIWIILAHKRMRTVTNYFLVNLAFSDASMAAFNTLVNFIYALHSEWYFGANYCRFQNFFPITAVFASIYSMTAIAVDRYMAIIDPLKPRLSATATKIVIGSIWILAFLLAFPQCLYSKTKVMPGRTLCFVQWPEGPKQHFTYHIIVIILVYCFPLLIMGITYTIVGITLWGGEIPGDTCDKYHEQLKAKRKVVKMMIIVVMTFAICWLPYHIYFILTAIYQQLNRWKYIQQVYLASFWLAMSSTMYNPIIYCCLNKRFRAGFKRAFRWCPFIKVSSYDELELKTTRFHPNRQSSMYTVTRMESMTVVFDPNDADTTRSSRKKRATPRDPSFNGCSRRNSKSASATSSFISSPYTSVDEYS
How it was run: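 hNK3 membranes (~2.5 μg/well) incubated 90 min at room temperature in 50 mM Tris-HCl pH 7.4 with 0.1% BSA, 4 mM MnCl2, 1 μM phosphoramidon. Nonspecific binding defined with 10 μM SB222200; bound [3H]SR142801 separated by filtration on PEI-soaked GF/C filters and counted by scintillation.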

human NK1 receptor = human NK1 receptor (Homo sapiens, UniProt P25103); test: NK1 receptor binding, [3H]substance P displacement, CHO cell membranes; conditions: first value of the cell NK1/NK3; read-out: pKi NK1 (converted)
Chain of human NK1 receptor (P25103 whole entry): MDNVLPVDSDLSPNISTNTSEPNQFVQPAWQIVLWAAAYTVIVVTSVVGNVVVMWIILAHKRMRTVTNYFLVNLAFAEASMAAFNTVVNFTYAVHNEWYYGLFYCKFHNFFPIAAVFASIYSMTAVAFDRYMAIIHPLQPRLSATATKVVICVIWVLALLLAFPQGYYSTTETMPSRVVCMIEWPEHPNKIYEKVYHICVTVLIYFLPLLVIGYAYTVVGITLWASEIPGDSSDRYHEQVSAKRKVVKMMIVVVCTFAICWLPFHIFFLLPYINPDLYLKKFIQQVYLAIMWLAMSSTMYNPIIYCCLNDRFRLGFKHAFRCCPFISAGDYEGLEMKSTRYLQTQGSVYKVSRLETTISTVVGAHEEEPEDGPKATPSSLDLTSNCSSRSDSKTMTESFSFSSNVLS

Ki [1] [nM]	Ki (human NK1 receptor) [nM]	Compound
3.89	0.427	Cc1ncccc1-c1cc(N2C[C@H](O)C[C@H]2CO)ncc1N(C)C(=O)C(C)(C)c1cc(C(F)(F)F)cc(C(F)(F)F)c1 [Example 233, (2S,4R)-2-(3,5-Bis-trifluoromethyl-phenyl)-N-[6′-(4-hydroxy-2-hydroxymethyl-pyrrolidin-1-yl)-2-methyl-[3,4′]bipyridinyl-3′-yl]-N-methyl-isobutyramide]
11	2.19	CN(C(=O)C(C)(C)c1cc(C(F)(F)F)cc(C(F)(F)F)c1)c1cnc(N2C[C@H](O)C[C@H]2CO)cc1-c1ncccc1Cl [Example 234, (2S,4R)-2-(3,5-Bis-trifluoromethyl-phenyl)-N-[3-chloro-6′-(4-hydroxy-2-hydroxymethyl-pyrrolidin-1-yl)-[2,4′]bipyridinyl-3′-yl]-N-methyl-isobutyramide]
1.26	1.66	CN(C(=O)C(C)(C)c1cc(C(F)(F)F)cc(C(F)(F)F)c1)c1cnc(N2C[C@@H](O)C[C@H]2CO)cc1-c1ccc(F)cc1Cl [Example 235, (2S,4S)-2-(3,5-Bis-trifluoromethyl-phenyl)-N-[4-(2-chloro-4-fluoro-phenyl)-6-(4-hydroxy-2-hydroxymethyl-pyrrolidin-1-yl)-pyridin-3-yl]-N-methyl-isobutyramide]
1.78	1.78	CN(C(=O)C(C)(C)c1cc(C(F)(F)F)cc(C(F)(F)F)c1)c1cnc(N2C[C@@H](O)C[C@H]2CO)cc1-c1ccc(Cl)cc1Cl [Example 236, (2S,4S)-2-(3,5-Bis-trifluoromethyl-phenyl)-N-[4-(2,4-dichloro-phenyl)-6-(4-hydroxy-2-hydroxymethyl-pyrrolidin-1-yl)-pyridin-3-yl]-N-methyl-isobutyramide]
7.76	1.02	CN(C(=O)C(C)(C)c1cc(C(F)(F)F)cc(C(F)(F)F)c1)c1cnc(N2C[C@@H](O)C[C@H]2CO)cc1-c1ccc(F)cc1F [Example 237, (2S,4S)-2-(3,5-Bis-trifluoromethyl-phenyl)-N-[4-(2,4-difluoro-phenyl)-6-(4-hydroxy-2-hydroxymethyl-pyrrolidin-1-yl)-pyridin-3-yl]-N-methyl-isobutyramide]
1.02	1.23	Cc1cc(F)ccc1-c1cc(N2C[C@@H](O)C[C@H]2CO)ncc1N(C)C(=O)C(C)(C)c1cc(C(F)(F)F)cc(C(F)(F)F)c1 [Example 238, (2S,4S)-2-(3,5-Bis-trifluoromethyl-phenyl)-N-[4-(4-fluoro-2-methyl-phenyl)-6-(4-hydroxy-2-hydroxymethyl-pyrrolidin-1-yl)-pyridin-3-yl]-N-methyl-isobutyramide]
1.48	1.62	CN(C(=O)C(C)(C)c1cc(C(F)(F)F)cc(C(F)(F)F)c1)c1cnc(N2C[C@@H](O)C[C@H]2CO)cc1-c1ccc(F)cc1C=O [Example 239, (2S,4S)-2-(3,5-Bis-trifluoromethyl-phenyl)-N-[4-(4-fluoro-2-formyl-phenyl)-6-(4-hydroxy-2-hydroxymethyl-pyrrolidin-1-yl)-pyridin-3-yl]-N-methyl-isobutyramide]
3.02	0.794	CN(C(=O)C(C)(C)c1cc(C(F)(F)F)cc(C(F)(F)F)c1)c1cnc(N2C[C@@H](O)C[C@H]2CO)cc1-c1ccc(F)cc1CO [Example 240, (2S,4S)-2-(3,5-Bis-trifluoromethyl-phenyl)-N-[4-(4-fluoro-2-hydroxymethyl-phenyl)-6-(4-hydroxy-2-hydroxymethyl-pyrrolidin-1-yl)-pyridin-3-yl]-N-methyl-isobutyramide]
1.62	1.45	Cc1ccccc1-c1cc(N2C[C@@H](O)C[C@H]2CO)ncc1N(C)C(=O)C(C)(C)c1cc(C(F)(F)F)cc(C(F)(F)F)c1 [Example 241, (2S,4S)-2-(3,5-Bis-trifluoromethyl-phenyl)-N-[6-(4-hydroxy-2-hydroxymethyl-pyrrolidin-1-yl)-4-o-tolyl-pyridin-3-yl]-N-methyl-isobutyramide]
6.92	1.32	CN(C(=O)C(C)(C)c1cc(C(F)(F)F)cc(C(F)(F)F)c1)c1cnc(N2C[C@@H](O)C[C@H]2CO)cc1-c1ccccc1F [Example 242, (2S,4S)-2-(3,5-Bis-trifluoromethyl-phenyl)-N-[4-(2-fluoro-phenyl)-6-(4-hydroxy-2-hydroxymethyl-pyrrolidin-1-yl)-pyridin-3-yl]-N-methyl-isobutyramide]
4.68	3.89	CN(C(=O)C(C)(C)c1cc(C(F)(F)F)cc(C(F)(F)F)c1)c1cnc(N2C[C@@H](O)C[C@H]2CO)cc1-c1ccccc1C(F)(F)F [Example 243, (2S,4S)-2-(3,5-Bis-trifluoromethyl-phenyl)-N-[6-(4-hydroxy-2-hydroxymethyl-pyrrolidin-1-yl)-4-(2-trifluoromethyl-phenyl)-pyridin-3-yl]-N-methyl-isobutyramide]
7.08	1	COc1ccccc1-c1cc(N2C[C@@H](O)C[C@H]2CO)ncc1N(C)C(=O)C(C)(C)c1cc(C(F)(F)F)cc(C(F)(F)F)c1 [Example 244, (2S,4S)-2-(3,5-Bis-trifluoromethyl-phenyl)-N-[6-(4-hydroxy-2-hydroxymethyl-pyrrolidin-1-yl)-4-(2-methoxy-phenyl)-pyridin-3-yl]-N-methyl-isobutyramide]
1.1	1.2	CN(C(=O)C(C)(C)c1cc(C(F)(F)F)cc(C(F)(F)F)c1)c1cnc(N2C[C@@H](O)C[C@H]2CO)cc1-c1ccccc1C#N [Example 245, (2S,4S)-2-(3,5-Bis-trifluoromethyl-phenyl)-N-[4-(2-cyano-phenyl)-6-(4-hydroxy-2-hydroxymethyl-pyrrolidin-1-yl)-pyridin-3-yl]-N-methyl-isobutyramide]
1.48	1.91	CN(C(=O)C(C)(C)c1cc(C(F)(F)F)cc(C(F)(F)F)c1)c1cnc(N2C[C@@H](O)C[C@H]2CO)cc1-c1ccccc1Br [Example 246, (2S,4S)-2-(3,5-Bis-trifluoromethyl-phenyl)-N-[4-(2-bromo-phenyl)-6-(4-hydroxy-2-hydroxymethyl-pyrrolidin-1-yl)-pyridin-3-yl]-N-methyl-isobutyramide]
15.8	1.51	CN(C(=O)C(C)(C)c1cc(C(F)(F)F)cc(C(F)(F)F)c1)c1cnc(N2C[C@@H](O)C[C@H]2CO)cc1-c1ccccc1 [Example 247, (2S,4S)-2-(3,5-Bis-trifluoromethyl-phenyl)-N-[6-(4-hydroxy-2-hydroxymethyl-pyrrolidin-1-yl)-4-phenyl-pyridin-3-yl]-N-methyl-isobutyramide]
27.5	2.19	Cc1cc(-c2cc(N3C[C@@H](O)C[C@H]3CO)ncc2N(C)C(=O)C(C)(C)c2cc(C(F)(F)F)cc(C(F)(F)F)c2)ccc1F [Example 248, (2S,4S)-2-(3,5-Bis-trifluoromethyl-phenyl)-N-[4-(4-fluoro-3-methyl-phenyl)-6-(4-hydroxy-2-hydroxymethyl-pyrrolidin-1-yl)-pyridin-3-yl]-N-methyl-isobutyramide]
1.02	2	Cc1c(F)cccc1-c1cc(N2C[C@@H](O)C[C@H]2CO)ncc1N(C)C(=O)C(C)(C)c1cc(C(F)(F)F)cc(C(F)(F)F)c1 [Example 249, (2S,4S)-2-(3,5-Bis-trifluoromethyl-phenyl)-N-[4-(3-fluoro-2-methyl-phenyl)-6-(4-hydroxy-2-hydroxymethyl-pyrrolidin-1-yl)-pyridin-3-yl]-N-methyl-isobutyramide]
